# Measured values as given in patent publication US8415342B2, “Besifloxacin ophthalmic composition for the treatment or control of infection” (Bausch & Lomb Incorporated, priority 2008, dated 2013).
# Several values for one entry are separate records, joined by “and”; a condition that tells them apart may be missing. Equal entries are not always repeated. Where two headings read alike, the source gives them in different places.
# Tests used:
# [1] = system: baseline bacterial conjunctival pathogens; assay: Integrated species-specific microbial eradication, Studies 373, 433, 434; assay type: in vivo, human; details: for Microbial eradication rate / Microbial eradication rate (eradicated/total): culture-confirmed, as-treated population (Global); for microbial eradication rate, all species combined: Studies 373, 433, 434 integrated, global (US and Asia)
# E. coli topoisomerase IV = E. coli topoisomerase IV (Escherichia coli, UniProt P0AFI2+P20083); assay: Catalytic inhibition of purified topoisomerase IV; assay type: biochemical; details: IC50 Topo IV, E. coli enzymes
# Chain of E. coli topoisomerase IV (P0AFI2 whole entry): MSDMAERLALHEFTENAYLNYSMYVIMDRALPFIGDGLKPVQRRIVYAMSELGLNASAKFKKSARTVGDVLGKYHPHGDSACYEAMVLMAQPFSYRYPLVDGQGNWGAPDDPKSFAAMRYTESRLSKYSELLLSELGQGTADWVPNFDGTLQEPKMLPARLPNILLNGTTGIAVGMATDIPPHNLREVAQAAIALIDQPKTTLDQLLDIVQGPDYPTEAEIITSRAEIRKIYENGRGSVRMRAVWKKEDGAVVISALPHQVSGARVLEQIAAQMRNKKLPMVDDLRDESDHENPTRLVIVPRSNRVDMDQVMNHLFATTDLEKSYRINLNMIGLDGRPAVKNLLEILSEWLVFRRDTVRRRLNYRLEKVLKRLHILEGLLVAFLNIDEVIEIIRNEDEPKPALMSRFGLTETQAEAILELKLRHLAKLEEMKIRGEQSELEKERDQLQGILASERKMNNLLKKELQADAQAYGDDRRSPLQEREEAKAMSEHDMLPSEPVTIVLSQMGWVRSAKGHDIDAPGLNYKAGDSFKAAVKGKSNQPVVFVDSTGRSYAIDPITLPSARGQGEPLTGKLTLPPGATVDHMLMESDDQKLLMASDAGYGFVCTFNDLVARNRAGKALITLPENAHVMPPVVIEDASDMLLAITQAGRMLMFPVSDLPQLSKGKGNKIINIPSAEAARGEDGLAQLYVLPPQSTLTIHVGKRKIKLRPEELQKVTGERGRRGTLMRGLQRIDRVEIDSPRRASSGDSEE
# Chain of E. coli topoisomerase IV (P20083 whole entry): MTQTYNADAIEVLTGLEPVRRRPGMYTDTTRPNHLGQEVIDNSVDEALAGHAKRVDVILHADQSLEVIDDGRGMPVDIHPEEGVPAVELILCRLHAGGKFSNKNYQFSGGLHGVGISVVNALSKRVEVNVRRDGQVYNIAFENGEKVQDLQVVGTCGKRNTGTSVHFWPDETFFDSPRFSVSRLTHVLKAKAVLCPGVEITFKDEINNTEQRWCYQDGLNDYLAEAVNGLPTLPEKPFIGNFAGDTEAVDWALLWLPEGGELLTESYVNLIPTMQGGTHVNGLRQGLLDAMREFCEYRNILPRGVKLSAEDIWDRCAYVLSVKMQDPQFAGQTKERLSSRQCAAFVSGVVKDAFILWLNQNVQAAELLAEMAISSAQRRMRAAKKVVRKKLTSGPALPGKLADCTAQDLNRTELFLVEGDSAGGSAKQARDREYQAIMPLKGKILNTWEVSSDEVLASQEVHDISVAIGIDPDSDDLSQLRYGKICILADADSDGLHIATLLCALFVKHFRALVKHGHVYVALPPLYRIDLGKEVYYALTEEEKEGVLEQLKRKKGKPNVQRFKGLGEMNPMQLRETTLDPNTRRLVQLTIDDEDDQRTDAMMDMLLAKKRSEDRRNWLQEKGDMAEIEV
# [2] = Binding to proteins in human plasma; assay type: in vitro ADME
# Text: The relationship between the concentration of besifloxacin in human tear fluid and the concentration required for antimicrobial activity was quantified by calculating the ratios of Cmax/MIC90 and AUC24/MIC90. For the purpose of calculating these PK/PD ratios, a PK model was used to simulate besifloxacin concentrations with a TID dosing regimen. An additional consideration in this analysis is the potential role of protein binding, which could effectively lower the concentration of unbound (free) besifloxacin. The inhibitory effect of protein binding on antibacterial efficacy has been reported for β-lactams; however, there is no general consensus about the role of protein binding on the antibacterial activity of fluoroquinolones (Bergogne-Berezin, 2002; Craig & Ebert, 1989; Drusano, 1988; Merrikin et al., 1983; Turnidge, 1999; Zeitlinger et al., 2008). […] In order to evaluate the potential theoretical maximum impact of protein binding on besifloxacin activity, Cmax/MIC90 and AUC24/MIC90 ratios were calculated based on the PK estimates for total (bound and free) and free (unbound) besifloxacin (Table 10).
# [3] = Safety pharmacology: in vivo cardiovascular effects after systemic dosing
# Text: The in vivo cardiovascular effects, specifically, an increase in QT duration, following besifloxacin systemic dosing were only observed after doses that were at least 300 times the intended ocular daily dose. There was no change in heart rate, blood pressure, or cardiac conduction.
# [4] = Nonclinical ocular tolerance, QID dosing for 28 days; assay type: in vivo
# Text: ERG measurements were included in the studies due to the known retinal toxicity associated with some fluoroquinolones.
# [5] = Systemic exposure after topical ocular administration to humans; details: human, in vivo, topical or ocular; following topical administration to humans
# Text: Topical ophthalmic use of besifloxacin is not expected to elicit any systemic effects.
# S. pneumoniae DNA gyrase = S. pneumoniae DNA gyrase (Streptococcus pneumoniae serotype 4, UniProt P0A4L9+P72524); assay: Cleavable complex stimulation (CC25), DNA gyrase; assay type: biochemical; details: S. pneumoniae enzymes; concentration that produces 25% linearization of the DNA
# Chain of S. pneumoniae DNA gyrase (P72524 whole entry): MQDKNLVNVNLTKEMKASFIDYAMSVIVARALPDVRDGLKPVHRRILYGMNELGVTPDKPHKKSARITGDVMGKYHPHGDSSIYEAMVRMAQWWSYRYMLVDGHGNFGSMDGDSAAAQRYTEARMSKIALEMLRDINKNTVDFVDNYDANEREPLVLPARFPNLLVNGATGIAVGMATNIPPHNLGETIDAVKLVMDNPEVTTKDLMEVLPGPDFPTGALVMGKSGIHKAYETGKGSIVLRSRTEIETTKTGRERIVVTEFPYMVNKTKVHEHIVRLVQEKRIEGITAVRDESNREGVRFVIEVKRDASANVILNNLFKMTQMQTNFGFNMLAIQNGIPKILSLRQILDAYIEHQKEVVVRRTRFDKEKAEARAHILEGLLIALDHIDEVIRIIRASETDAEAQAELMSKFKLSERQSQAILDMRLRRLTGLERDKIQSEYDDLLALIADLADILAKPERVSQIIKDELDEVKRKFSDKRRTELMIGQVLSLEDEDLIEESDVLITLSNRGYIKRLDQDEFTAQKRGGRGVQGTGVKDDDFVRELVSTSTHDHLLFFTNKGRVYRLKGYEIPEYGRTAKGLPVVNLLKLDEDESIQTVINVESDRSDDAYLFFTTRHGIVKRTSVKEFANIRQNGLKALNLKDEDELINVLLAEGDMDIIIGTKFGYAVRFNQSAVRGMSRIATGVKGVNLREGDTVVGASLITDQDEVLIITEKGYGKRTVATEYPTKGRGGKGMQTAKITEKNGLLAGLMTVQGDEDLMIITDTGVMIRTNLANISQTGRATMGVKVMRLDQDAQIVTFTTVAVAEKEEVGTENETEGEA
# Chain of S. pneumoniae DNA gyrase (P0A4L9 whole entry): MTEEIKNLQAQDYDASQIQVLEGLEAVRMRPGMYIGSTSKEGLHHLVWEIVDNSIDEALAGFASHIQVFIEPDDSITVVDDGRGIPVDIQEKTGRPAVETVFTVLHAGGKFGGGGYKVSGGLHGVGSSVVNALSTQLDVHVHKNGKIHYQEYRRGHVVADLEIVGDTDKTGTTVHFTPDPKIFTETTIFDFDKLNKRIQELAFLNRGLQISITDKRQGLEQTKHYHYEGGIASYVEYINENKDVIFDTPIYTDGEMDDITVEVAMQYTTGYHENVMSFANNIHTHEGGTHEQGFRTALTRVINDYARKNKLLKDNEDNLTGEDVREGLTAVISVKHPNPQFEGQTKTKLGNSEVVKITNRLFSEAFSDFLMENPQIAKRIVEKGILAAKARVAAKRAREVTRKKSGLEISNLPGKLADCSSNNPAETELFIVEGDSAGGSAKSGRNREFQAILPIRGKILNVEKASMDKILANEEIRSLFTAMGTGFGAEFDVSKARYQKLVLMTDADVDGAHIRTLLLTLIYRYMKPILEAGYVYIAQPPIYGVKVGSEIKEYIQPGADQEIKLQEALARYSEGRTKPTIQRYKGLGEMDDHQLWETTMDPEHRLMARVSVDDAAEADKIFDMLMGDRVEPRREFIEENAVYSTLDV
# [6] = Study 424: tear fluid pharmacokinetics after single topical ocular instillation in healthy volunteers; assay type: in vivo, human
# Procedure: This study was conducted to evaluate the ocular PK of besifloxacin in tear fluid after a single instillation of besifloxacin ophthalmic suspension, 0.6%, in both eyes of healthy volunteers and to compare the actual besifloxacin exposure to MICs of the most prevalent pathogens associated with bacterial conjunctivitis.
# Healthy volunteers received a single instillation (37 μL by pipette) of besifloxacin ophthalmic suspension, 0.6%, in the conjunctival sac of each eye. A single tear sample was collected on a Schirmer tear strip from each healthy volunteer. […] Samples were analyzed using a validated LC/MS/MS method, and the LLOQ was 2 ng/mL (equivalent to approximately 0.2 μg/g for a 10-mg tear sample).
# Mean tear concentration data were obtained from the per protocol (PP) set and the full analysis (FAS) set. For the purpose of this study, the PP set included all healthy volunteers with the exclusion of apparent outlier values. The FAS set included all healthy volunteers who received besifloxacin, and from whom all sampling data were available (no exclusion of outlier values).
# [7] = system: ocular isolates (S. pneumoniae, S. epidermidis, H. influenzae, and S. aureus); assay: MBC versus MIC, all recent ocular isolates tested; assay type: cell-based
# Text: The success of in vivo antimicrobial action depends to a large extent on the host's defense mechanisms, which ultimately sequester and kill the microorganisms that have been reduced by the bacteriostatic/bactericidal action of the antibacterial agent. Thus, it is also of interest to profile the bactericidal activity of antimicrobial agents. The assessment of in vitro bactericidal activity can be accomplished in multiple ways, for example, the time-kill method or the determination of the minimum bactericidal concentration (MBC). […] Bactericidal agents are characterized by low MBC:MIC ratios.
# [8] = C. pseudodiphtheriticum, Visit 2
# [9] = C. pseudodiphtheriticum, Visit 3
# [10] = CDC coryneform group G, Visit 2
# [11] = CDC coryneform group G, Visit 3
# [12] = S. mitis group (only isolates identified as S. mitis or S. mitis group), Visit 2
# [13] = S. mitis group (only isolates identified as S. mitis or S. mitis group), Visit 3
# [14] = both sexes, human, tear fluid, topical, 37 μL of 0.6% suspension per eye, tears, single instillation 0.6% suspension, healthy volunteers, FAS
# [15] = both sexes, human, tear fluid, topical, 37 μL of 0.6% suspension per eye, tears, single instillation 0.6% suspension, healthy volunteers, PP
# [16] = tears, single instillation 0.6% suspension, healthy volunteers, FAS
compound,measurement,setting,value
"N[C@@H]1CCCCN(c2c(F)cc3c(=O)c(C(=O)O)cn(C4CC4)c3c2Cl)C1 [Besifloxacin, (R)-(+)-(3-amino-2,3,4,5,6,7-hexahydro-1H-azepin-1-yl)-8-chloro-1-cyclopropyl-6-fluoro-1,4,-dihydro-4-oxo-3-quinolinecarboxylic acid]",Microbial eradication rate,"[1]; All species, Visit 2",(92.2%)
same,Microbial eradication rate (eradicated/total),"[1]; All species, Visit 2",606/656
same,Microbial eradication rate,"[1]; All species, Visit 3",(88.4%)
same,Microbial eradication rate (eradicated/total),"[1]; All species, Visit 3",580/656
same,Microbial eradication rate,[1]; [8],(100.0%)
same,Microbial eradication rate (eradicated/total),[1]; [8],6/6
same,Microbial eradication rate,[1]; [9],(100.0%)
same,Microbial eradication rate (eradicated/total),[1]; [9],6/6
same,Microbial eradication rate,"[1]; C. striatum, Visit 2",(100.0%)
same,Microbial eradication rate (eradicated/total),"[1]; C. striatum, Visit 2",5/5
same,Microbial eradication rate,"[1]; C. striatum, Visit 3",(100.0%)
same,Microbial eradication rate (eradicated/total),"[1]; C. striatum, Visit 3",5/5
same,Microbial eradication rate,[1]; [10],(93.8%)
same,Microbial eradication rate (eradicated/total),[1]; [10],15/16
same,Microbial eradication rate,[1]; [11],(93.8%)
same,Microbial eradication rate (eradicated/total),[1]; [11],15/16
same,Microbial eradication rate,"[1]; Gram-negative, Visit 2",(92.3%)
same,Microbial eradication rate (eradicated/total),"[1]; Gram-negative, Visit 2",193/209
same,Microbial eradication rate,"[1]; Gram-negative, Visit 3",(90.0%)
same,Microbial eradication rate (eradicated/total),"[1]; Gram-negative, Visit 3",188/209
same,Microbial eradication rate,"[1]; Gram-positive, Visit 2",(92.2%)
same,Microbial eradication rate (eradicated/total),"[1]; Gram-positive, Visit 2",412/447
same,Microbial eradication rate,"[1]; Gram-positive, Visit 3",(87.7%)
same,Microbial eradication rate (eradicated/total),"[1]; Gram-positive, Visit 3",392/447
same,Microbial eradication rate,"[1]; H. influenzae, Visit 2",(91.0%)
same,Microbial eradication rate (eradicated/total),"[1]; H. influenzae, Visit 2",152/167
same,Microbial eradication rate,"[1]; H. influenzae, Visit 3",(88.6%)
same,Microbial eradication rate (eradicated/total),"[1]; H. influenzae, Visit 3",148/167
same,Microbial eradication rate,"[1]; M. lacunata, Visit 2",(100.0%)
same,Microbial eradication rate (eradicated/total),"[1]; M. lacunata, Visit 2",5/5
same,Microbial eradication rate,"[1]; M. lacunata, Visit 3",(80.0%)
same,Microbial eradication rate (eradicated/total),"[1]; M. lacunata, Visit 3",4/5
same,Microbial eradication rate,"[1]; S. aureus, Visit 2",(87.1%)
same,Microbial eradication rate (eradicated/total),"[1]; S. aureus, Visit 2",81/93
same,Microbial eradication rate,"[1]; S. aureus, Visit 3",(83.9%)
same,Microbial eradication rate (eradicated/total),"[1]; S. aureus, Visit 3",78/93
same,Microbial eradication rate,"[1]; S. epidermidis, Visit 2",(94.0%)
same,Microbial eradication rate (eradicated/total),"[1]; S. epidermidis, Visit 2",47/50
same,Microbial eradication rate,"[1]; S. epidermidis, Visit 3",(88.0%)
same,Microbial eradication rate (eradicated/total),"[1]; S. epidermidis, Visit 3",44/50
same,Microbial eradication rate,"[1]; S. hominis, Visit 2",(83.3%)
same,Microbial eradication rate (eradicated/total),"[1]; S. hominis, Visit 2",5/6
same,Microbial eradication rate,"[1]; S. hominis, Visit 3",(100.0%)
same,Microbial eradication rate (eradicated/total),"[1]; S. hominis, Visit 3",6/6
same,Microbial eradication rate,"[1]; S. lugdunensis, Visit 2",(100.0%)
same,Microbial eradication rate (eradicated/total),"[1]; S. lugdunensis, Visit 2",5/5
same,Microbial eradication rate,"[1]; S. lugdunensis, Visit 3",(100.0%)
same,Microbial eradication rate (eradicated/total),"[1]; S. lugdunensis, Visit 3",5/5
same,Microbial eradication rate,[1]; [12],(89.5%)
same,Microbial eradication rate (eradicated/total),[1]; [12],17/19
same,Microbial eradication rate,[1]; [13],(84.2%)
same,Microbial eradication rate (eradicated/total),[1]; [13],16/19
same,Microbial eradication rate,"[1]; S. oralis, Visit 2",(90.9%)
same,Microbial eradication rate (eradicated/total),"[1]; S. oralis, Visit 2",10/11
same,Microbial eradication rate,"[1]; S. oralis, Visit 3",(72.7%)
same,Microbial eradication rate (eradicated/total),"[1]; S. oralis, Visit 3",8/11
same,Microbial eradication rate,"[1]; S. pneumoniae, Visit 2",(92.8%)
same,Microbial eradication rate (eradicated/total),"[1]; S. pneumoniae, Visit 2",142/153
same,Microbial eradication rate,"[1]; S. pneumoniae, Visit 3",(86.3%)
same,Microbial eradication rate (eradicated/total),"[1]; S. pneumoniae, Visit 3",132/153
same,Microbial eradication rate,"[1]; S. salivarius, Visit 2",(100.0%)
same,Microbial eradication rate (eradicated/total),"[1]; S. salivarius, Visit 2",5/5
same,Microbial eradication rate,"[1]; S. salivarius, Visit 3",(80.0%)
same,Microbial eradication rate (eradicated/total),"[1]; S. salivarius, Visit 3",4/5
same,"microbial eradication rate, all species combined",[1]; Visit 2,92.2%
same,"microbial eradication rate, all species combined",[1]; Visit 3,88.4%
same,IC50,E. coli topoisomerase IV,23 µM and 25.4 µM
same,bound to proteins in human plasma,[2],approximately 40%
same,dose at which an increase in QT duration was observed,[3],at least 300 times the intended ocular daily dose
same,"heart rate, blood pressure, or cardiac conduction",[3],no change
same,non-clinical ocular tolerance,[4],no adverse effects observed
same,Cmax,[5],~0.4 ng/mL
same,CC25 Gyrase,S. pneumoniae DNA gyrase,2.5 μM and 1 μg/mL
same,concentration at 24 h,"[6]; both sexes, human, tear fluid, topical, 37 μL of 0.6% suspension per eye, 0.6% suspension, human tears, read-out: mean concentration in tears at 24 hours (C24h)",1600 ± 2280 ng/g
same,concentration at 24 h,"[6]; both sexes, human, tear fluid, topical, 37 μL of 0.6% suspension per eye, after a single dose of 0.6% suspension, humans, read-out: concentration in tears sustained for at least 24 hours",≥ 1600 ng/g
same,Cmax,[6]; [14],610000 ± 540000 ng/g
same,Tmax,[6]; [14],0.17 h
same,half-life,[6]; [14],3.4 h
same,Cmax,[6]; [15],811000 ng/g
same,half-life,[6]; [15],3.51 h
same,time of mean maximum concentration in tears after instillation,"[6]; single instillation, healthy volunteers",≤ 10 min
same,AUC24,[6]; [16],1232 µg·h/g
same,t1/2,[6]; [16],3.43 h
same,AUC24,"[6]; tears, single instillation 0.6% suspension, healthy volunteers, PP",1523 µg·h/g
same,isolates with MBC within 4-fold of the MIC,[7],more than 80%
